Read-outs that look alike come from different tables or passages of the source.
Target: T1, Zcchc11 enzyme (Homo sapiens, UniProt Q5TAX3)
T1 construct: made in house; host or cells: HEK293 cells (Zcchc11); E. coli Rosetta II (LIN28A)
T1 sequence (Q5TAX3 212-1420): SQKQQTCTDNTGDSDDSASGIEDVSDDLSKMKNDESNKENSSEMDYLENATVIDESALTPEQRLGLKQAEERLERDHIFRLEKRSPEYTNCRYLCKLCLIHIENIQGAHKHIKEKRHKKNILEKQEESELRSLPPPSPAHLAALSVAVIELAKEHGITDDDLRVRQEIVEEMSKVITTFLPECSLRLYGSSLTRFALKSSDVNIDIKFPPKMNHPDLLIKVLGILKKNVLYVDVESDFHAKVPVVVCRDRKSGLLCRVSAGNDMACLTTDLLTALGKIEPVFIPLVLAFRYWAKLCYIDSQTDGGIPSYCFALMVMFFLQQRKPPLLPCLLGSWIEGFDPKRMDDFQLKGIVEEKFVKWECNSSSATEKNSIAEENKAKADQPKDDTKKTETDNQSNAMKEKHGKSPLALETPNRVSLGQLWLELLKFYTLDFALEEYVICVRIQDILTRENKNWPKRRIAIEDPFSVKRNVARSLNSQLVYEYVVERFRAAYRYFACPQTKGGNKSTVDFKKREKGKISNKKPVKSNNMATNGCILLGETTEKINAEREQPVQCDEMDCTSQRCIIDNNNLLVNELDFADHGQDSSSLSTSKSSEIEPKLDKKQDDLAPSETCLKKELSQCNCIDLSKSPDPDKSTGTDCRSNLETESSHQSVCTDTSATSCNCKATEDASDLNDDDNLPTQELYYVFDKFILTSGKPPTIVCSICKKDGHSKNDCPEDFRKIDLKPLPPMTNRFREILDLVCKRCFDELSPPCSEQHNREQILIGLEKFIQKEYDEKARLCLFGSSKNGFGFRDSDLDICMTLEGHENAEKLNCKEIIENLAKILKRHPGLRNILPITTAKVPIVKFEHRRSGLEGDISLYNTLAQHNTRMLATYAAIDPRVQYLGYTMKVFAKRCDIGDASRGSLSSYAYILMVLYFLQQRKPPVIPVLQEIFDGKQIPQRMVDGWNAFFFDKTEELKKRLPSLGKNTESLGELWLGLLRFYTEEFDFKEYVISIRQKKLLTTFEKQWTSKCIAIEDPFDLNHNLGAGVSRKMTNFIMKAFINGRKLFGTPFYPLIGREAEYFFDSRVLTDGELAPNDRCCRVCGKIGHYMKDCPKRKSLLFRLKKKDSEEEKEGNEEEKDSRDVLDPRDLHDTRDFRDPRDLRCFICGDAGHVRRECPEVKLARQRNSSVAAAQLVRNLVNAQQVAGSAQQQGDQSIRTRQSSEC
Assay: TUTase assay (Zcchc11 assay, Lin28a-dependent polyuridylation of pre-let-7)
Assay type: biochemical
Settings: read-out: Potency Lin28a-dep Z11 IC50
Procedure, shortened: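 Polyuridylation measured as fluorescein loss when a rhodamine-labelled A20 probe anneals to U-tails added to fluorescein pre-let-7 (2 nM). Reaction: truncated Zcchc11 0.2 nM, E. coli-made LIN28A 10 nM, UTP 5 uM, HEPES pH 7.3, room temperature. Initial rates fitted to four-parameter IC50.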

[1] = Lin28a-dependent Zcchc11 (Z11) TUTase activity
[2] = Lin28a-dependent Zcchc11 (Z11) TUTase assay

Row | SMILES | IC50 [1] | IC50 [2]
1 | O=C(O)c1cn(-c2ncc(O)cn2)c2cc(N3CCC[C@@H]3COc3ccccn3)c(F)cc2c1=O [Compound 88, (R)-6-fluoro-1-(5-hydroxy-pyrimidin-2-yl)-4-oxo-7-(2-((pyridin-2-yloxy)methyl)pyrrolidin-1-yl)-1,4-dihydro-quinoline-3-carboxylic acid] | 1 to 10 µM | –
2 | COc1ccc(-n2cc(C(=O)O)c(=O)c3cc(F)c(N4CCC[C@@H]4COc4ccccn4)cc32)cc1 [Example 401, (R)-6-fluoro-1-(4-methoxyphenyl)-4-oxo-7-(2-((pyridin-2-yloxy)methyl)pyrrolidin-1-yl)-1,4-dihydroquinoline-3-carboxylic acid] | – | ≤ 1 µM
3 | COc1ccnc(OC[C@H]2C[C@H]3C[C@H]3N2c2cc3c(cc2F)c(=O)c(C(=O)O)cn3-c2ccc(N3CC(N(C)C)C3)nc2)c1F [Example 686, 1-(6-(3-(dimethylamino)azetidin-1-yl)pyridin-3-yl)-6-fluoro-7-((1R,3R, 5R)-3-(((3-fluoro-4-methoxypyridin-2-yl)oxy)methyl)-2-azabicyclo[3.1.0]hexan-2-yl)-4-oxo-1,4-dihydroquinoline-3-carboxylic acid] | – | ≤ 1 µM
4 | O=C(O)c1cn(-c2cnccn2)c2cc(N3C[C@@H](F)C[C@H]3COc3ncccc3Cl)c(Cl)cc2c1=O [Example 468, 6-chloro-7-[(2S,4S)-2-{[(3-chloropyridin-2-yl)oxy]methyl}-4-fluoropyrrolidin-1-yl]-4-oxo-1-(pyrazin-2-yl)-1,4-dihydroquinoline-3-carboxylic acid] | – | 10 to 50 µM
5 | COc1ccnc(OC[C@H]2C[C@H]3C[C@H]3N2c2cc3c(cc2Cl)c(=O)c(C(=O)O)cn3-c2ccc(N(C)C)nc2)c1Cl [Compound 267, 6-chloro-7-((1R,3R,5R)-3-(((3-chloro-4-methoxy-pyridin-2-yl)oxy)methyl)-2-azabicyclo [3.1.0]hexan-2-yl)-1-(6-(dimethyl-amino)pyridin-3-yl)-4-oxo-1,4-dihydro-quinoline-3-carboxylic acid] | ≤ 1 µM | –
6 | COCCN1CC2(CC(n3cc(C(=O)O)c(=O)c4cc(Cl)c(N5CCC[C@@H]5COc5ncccc5Cl)cc43)C2)C1 [Example 482, (R)-6-chloro-7-(2-(((3-chloropyridin-2-yl)oxy)methyl)pyrrolidin-1-yl)-1-(2-(2-methoxy-ethyl)-2-azaspiro[3.3]heptan-6-yl)-4-oxo-1,4-dihydroquinoline-3-carboxylic acid] | – | 1 to 10 µM
7 | O=C(O)c1cn(-c2cnc(O)cn2)c2cc(N3CCC[C@@H]3COc3ccccn3)c(F)cc2c1=O [Example 354, (R)-6-fluoro-1-(5-hydroxypyrazin-2-yl)-4-oxo-7-(2-((pyridin-2-yloxy)methyl)pyrrolidin-1-yl)-1,4-dihydroquinoline-3-carboxylic acid] | – | 1 to 10 µM
8 | CN(C)C1CN(c2ccc(-n3cc(C(=O)O)c(=O)c4cc(Cl)c(N5C6CC6C[C@@H]5COc5nc(N)ccc5Cl)cc43)cn2)C1 (stereo partly drawn) [Compound 336, 7-[(3R)-3-{[(6-Amino-3-chloropyridin-2-yl)oxy]methyl}-2-azabicyclo [3.1.0]hexan-2-yl]-6-chloro-1-{6-[3-(dimethyl-amino)azetidin-1-yl]pyridin-3-yl}-4-oxoquinoline-3-carboxylic acid] | ≤ 1 µM | –
9 | CN(C)C1CN(c2ccc(-n3cc(C(=O)O)c(=O)c4cc(Cl)c(N5CCC[C@@H]5COc5nc6c(cc5Cl)ncn6C)cc43)cn2)C1 (racemic) [Compound 274, rac-(R)-6-chloro-7-(2-(((6-chloro-3-methyl-3H-imidazo [4,5-b]pyridin-5-yl)oxy)methyl)pyrrolidin-1-yl)-1-(6-(3-(dimethyl-amino)azetidin-1-yl)pyridin-3-yl)-4-oxo-1,4-dihydro-quinoline-3-carboxylic acid] | ≤ 1 µM | –
10 | Cc1cccnc1OC[C@H]1CCCN1c1cc2c(cc1Cl)c(=O)c(C(=O)O)cn2C1(C)CCOCC1 [Example 459, (R)-6-chloro-7-(2-(((3-methylpyridin-2-yl)oxy)methyl)pyrrolidin-1-yl)-1-(4-methyltetra-hydro-2H-pyran-4-yl)-4-oxo-1,4-dihydroquinoline-3-carboxylic acid] | – | 1 to 10 µM
11 | CN(C)C1CN(c2ccc(-n3cc(C(=O)O)c(=O)c4cc(Cl)c(N5CCC6CC65COc5ncccc5Cl)cc43)cn2)C1 (centres unmarked) [Compound 170, 6-chloro-7-(1-(((3-chloropyridin-2-yl)oxy)methyl)-2-azabicyclo [3.1.0]hexan-2-yl)-1-(6-(3-(dimethyl-amino)azetidin-1-yl)pyridin-3-yl)-4-oxo-1,4-dihydro-quinoline-3-carboxylic acid] | ≤ 1 µM | –
12 | CC1(n2cc(C(=O)O)c(=O)c3cc(F)c(N4CCC[C@@H]4COc4ccccn4)cc32)CC1 [Example 361, (R)-6-fluoro-1-(1-methylcyclo-propyl)-4-oxo-7-(2-((pyridin-2-yloxy)methyl)pyrrolidin-1-yl)-1,4-dihydroquinoline-3-carboxylic acid] | – | ≤ 1 µM
13 | CN(C)C1CN(c2ccc(-n3cc(C(=O)O)c(=O)c4cc(F)c(N5CCC[C@@H]5COc5cc(O)ccn5)c(F)c43)cn2)C1 [Example 600, (R)-1-(6-(3-(dimethylamino)azetidin-1-yl)pyridin-3-yl)-6,8-difluoro-7-(2-(((4-hydroxypyridin-2-yl)oxy)methyl)pyrrolidin-1-yl)-4-oxo-1,4-dihydroquinoline-3-carboxylic acid] | – | ≤ 1 µM
14 | O=C(O)c1cn(-c2cnccn2)c2cc(N3CCC[C@@H]3COc3ccccn3)c(F)cc2c1=O [Example 402, (R)-6-fluoro-4-oxo-1-(pyrazin-2-yl)-7-(2-((pyridin-2-yloxy)methyl)pyrrolidin-1-yl)-1,4-dihydroquinoline-3-carboxylic acid] | – | 1 to 10 µM
15 | CN(C)C(=O)OC[C@H]1CCCN1c1cc2c(cc1Cl)c(=O)c(C(=O)O)cn2-c1ccc(N2CC(N(C)C)C2)nc1 (racemic) [Compound 195, rac-(R)-6-chloro-1-(6-(3-(dimethyl-amino)azetidin-1-yl)pyridin-3-yl)-7-(2-(((dimethylcarbamoyl)oxy)methyl)pyrrolidin-1-yl)-4-oxo-1,4-dihydro-quinoline-3-carboxylic acid formic acid] | ≤ 1 µM | –
16 | O=C(O)c1cn(Cc2cn[nH]c2)c2cc(N3CCC[C@@H]3COc3ncccc3Cl)c(Cl)cc2c1=O [Example 581, (R)-1-((1H-pyrazol-4-yl)methyl)-6-chloro-7-(2-(((3-chloropyridin-2-yl)oxy)methyl)pyrrolidin-1-yl)-4-oxo-1,4-dihydroquinoline-3-carboxylic acid] | – | 1 to 10 µM
17 | Cc1cccnc1OC[C@H]1CCCN1c1cc2c(cc1C#N)c(=O)c(C(=O)O)cn2-c1cnn(C)c1 [Compound 248, 6-cyano-1-(1-methylpyrazol-4-yl)-7-[(2R)-2-[[(3-methylpyridin-2-yl)oxy]methyl]pyrrolidin-1-yl]-4-oxoquinoline-3-carboxylic acid] | ≤ 1 µM | –
18 | CN(C)C1CN(c2ccc(-n3cc(C(=O)O)c(=O)c4cc(Cl)c(N5CC6(CCC6)CC5COc5ncccc5Cl)cc43)cn2)C1 (centres unmarked) [Compound 226, 6-Chloro-7-(7-(((3-chloropyridin-2-yl)oxy)methyl)-6-azaspiro [3.4]octan-6-yl)-1-(6-(3-(dimethyl-amino)azetidin-1-yl)pyridin-3-yl)-4-oxo-1,4-dihydro-quinoline-3-carboxylic acid compound with formic acid (1:1)] | ≤ 1 µM | –
19 | Nc1ccc(-n2cc(C(=O)O)c(=O)c3cc(F)c(N4CCC[C@@H]4COc4ncccc4F)cc32)cn1 [Compound 316, 1-(6-Aminopyridin-3-yl)-6-fluoro-7-[(2R)-2-[[(3-fluoropyridin-2-yl)oxy]methyl]pyrrolidin-1-yl]-4-oxoquinoline-3-carboxylic acid] | ≤ 1 µM | –
20 | O=C(O)c1cn(-c2ccc(O)cc2F)c2cc(N3CCC[C@@H]3COc3ccccn3)c(Cl)cc2c1=O [Compound 95, (R)-6-chloro-1-(2-fluoro-4-hydroxy-phenyl)-4-oxo-7-(2-((pyridin-2-yloxy)methyl)pyrrolidin-1-yl)-1,4-dihydro-quinoline-3-carboxylic acid] | ≤ 1 µM | –
